Here are results for one cell line from the supplement of paper PMC10307832.

What all share (assay): relative viability (nuclei count vs DMSO), 5 days (fraction); higher = more cells survive
Compound in assay [1]: O=C(C[C@H]1NCCC[C@@H]1O)Cn1cnc2cc(Br)c(Cl)cc2c1=O (racemic) [Halofuginone] + CC(=O)Nc1cccc(-n2c(=O)n(C3CC3)c(=O)c3c(Nc4ccc(I)cc4F)n(C)c(=O)c(C)c32)c1 [Trametinib] (partner 0.02 µM)
Put shortly: (§1)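 Relative viability is defined as nuclei in treated wells over nuclei in vehicle wells. Duplicate plates were run and medians reported. Lung cancer cell lines in 1536-well plates were dosed by pin tool one day after seeding, with one drug or with a fixed anchor-drug dose plus five library-drug doses (not always all listed) in √10 steps, and nuclei were counted after 5 days.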

Compound in the assay “Decitabine + OSI-027”: Nc1ncn([C@H]2C[C@H](O)[C@@H](CO)O2)c(=O)n1 [Decitabine] + COc1cccc2cc(-c3nc([C@H]4CC[C@H](C(=O)O)CC4)n4ncnc(N)c34)[nH]c12 [OSI-027] (partner 0.5 µM)
Put shortly: as §1

Compound in the assay “Cediranib + Bortezomib”: COc1cc2c(Oc3ccc4[nH]c(C)cc4c3F)ncnc2cc1OCCCN1CCCC1 [Cediranib] + CC(C)C[C@H](NC(=O)[C@H](Cc1ccccc1)NC(=O)c1cnccn1)B(O)O [Bortezomib] (partner 0.002 µM)
The gist of the method: as §1

Compound in assay [2]: O=C(C[C@H]1NCCC[C@@H]1O)Cn1cnc2cc(Br)c(Cl)cc2c1=O (racemic) [Halofuginone] + Cc1cc(Nc2cc(N3CCN(C)CC3)nc(Sc3ccc(NC(=O)C4CC4)cc3)n2)n[nH]1 [Tozasertib] (partner 0.1 µM)
Put shortly: as §1

For the cell line UMC-11, the relative viability in assay [1] (first compound 0.001 µM) worked out at 0.8; in assay [1] (first compound 0.003162 µM), 0.791; in assay [1] (first compound 0.01 µM), 0.782; in assay [1] (first compound 0.03162 µM), 0.603; in assay [1] (first compound 0.1 µM), 0.456; with Decitabine + OSI-027 (first compound 0.04 µM) it was 0.46. Further, the relative viability came out at 0.0004 in the assay with Decitabine + OSI-027 (first compound 0.1265 µM); 0.411 with Decitabine + OSI-027 (first compound 0.4 µM); 0.316 with Decitabine + OSI-027 (first compound 1.265 µM); 0.363 with Decitabine + OSI-027 (first compound 4 µM); 1.02 with Cediranib + Bortezomib (first compound 0.04 µM); 0.442 with Cediranib + Bortezomib (first compound 0.1265 µM). The relative viability came out at 0.683 with Cediranib + Bortezomib (first compound 0.4 µM); 0.628 with Cediranib + Bortezomib (first compound 1.265 µM); 0.547 with Cediranib + Bortezomib (first compound 4 µM); 0.219 in assay [2] (first compound 0.001 µM); 0.196 in assay [2] (first compound 0.003162 µM); 0.189 in assay [2] (first compound 0.01 µM). Also, the results for the relative viability in assay [2] (first compound 0.03162 µM) and in assay [2] (first compound 0.1 µM) were 0.205 and 0.209, respectively.
